Results reported in ChEMBL document CHEMBL1201862, “PubChem BioAssay data set” (2004).
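Five compound concentrations were applied to cells in 96-well plates for 48 hours; endpoints were derived by simple linear interpolation of the resulting dose-response curve. GI50 = concentration required for 50% inhibition of growth.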 The source made the active and inactive calls. Cut-off read from the data, not from the text of the source: active = GI50 up to about 1.1 µM and inactive = higher.

Columns and labels:
Experiment in all cases: NCI-60 cell line screen, 48 h
[1] = system: SK-MEL-28
[2] = system: OVCAR-5
[3] = system: HT-29
[4] = system: NCI-H460
[5] = system: UACC-62
[6] = system: CAKI-1
[7] = system: UO-31
[8] = system: UACC-257
[9] = system: OVCAR-3
[10] = system: 786-0
[11] = system: HCT-116
[12] = system: SN12C
[13] = system: HL-60
[14] = system: Malme-3M
[15] = system: KM12
[16] = system: RPMI-8226
[17] = system: TK-10
[18] = system: SF-539
[19] = system: SNB-75
[20] = system: RXF 393

Measured: GI50

C=C1Oc2nc3ccccc3c(=O)n2C1(C)C
inactive: [1] > 100 µM | [2] > 100 µM | [3] > 100 µM | [4] > 100 µM | [5] > 100 µM | [6] > 100 µM | [7] > 100 µM | [8] > 100 µM | [9] > 10 µM | [10] > 100 µM | [11] > 100 µM | [12] > 100 µM | [13] > 100 µM | [14] > 100 µM | [15] > 10 µM | [16] > 100 µM | [17] > 100 µM | [18] > 100 µM

COP(C)(=O)/C(Cc1ccccc1)=N\O (stereo unspecified)
inactive: [1] > 100 µM | [2] > 100 µM | [3] > 100 µM | [4] > 100 µM | [6] > 100 µM | [7] > 100 µM | [19] > 100 µM | [8] > 100 µM | [9] > 100 µM | [11] > 100 µM | [12] > 100 µM | [13] > 100 µM | [16] > 100 µM | [17] > 100 µM

O=c1c2ccccc2nc(-c2ccc(Br)cc2)n1NC1OC(CO)C(O)C(O)C1O (stereo unspecified)
inactive: [1] > 100 µM | [2] > 100 µM | [3] > 100 µM | [4] > 100 µM | [5] 79.6 µM | [6] > 100 µM | [7] 78 µM | [19] 80.5 µM | [8] > 100 µM | [9] 31.3 µM | [10] > 100 µM | [11] > 100 µM | [12] > 100 µM | [13] 34.1 µM | [14] > 100 µM | [15] > 100 µM | [16] 72.9 µM | [17] > 100 µM | [18] > 100 µM

O=P1(O)c2ccccc2CS(=O)(=O)Cc2ccccc21
inactive: [1] > 100 µM | [20] > 100 µM | [2] > 100 µM | [3] > 100 µM | [4] > 100 µM | [5] > 100 µM | [6] > 100 µM | [7] > 100 µM | [8] > 100 µM | [9] > 100 µM | [10] > 100 µM | [11] > 100 µM | [12] > 100 µM | [13] > 100 µM | [15] > 100 µM | [17] > 100 µM | [18] > 100 µM

C=C1CC(C)(COc2ccc3c(C)c(C)c(=O)oc3c2C)OC1=O (stereo unspecified)
inactive: [1] 2.07 µM | [2] 6.27 µM | [3] 2.17 µM | [4] 5.33 µM | [5] 1.27 µM | [6] 1.7 µM | [7] 9.18 µM | [19] 3.66 µM | [8] 2.09 µM | [9] 3.3 µM | [10] 1.4 µM | [12] 2.04 µM | [14] 1.39 µM | [15] 4.54 µM | [17] 1.15 µM | [18] 2.24 µM
active: [11] 0.879 µM | [13] 0.19 µM | [16] 0.594 µM

COc1cccc(/C=C2\C(=O)N(C(=O)Cc3ccccc3)N=C2C)c1
inactive: [1] > 100 µM | [2] > 100 µM | [3] > 100 µM | [4] > 10 µM | [6] > 100 µM | [7] > 100 µM | [19] > 100 µM | [8] > 100 µM | [9] > 100 µM | [10] > 100 µM | [11] > 100 µM | [12] > 100 µM | [13] > 100 µM | [14] > 100 µM | [15] > 100 µM | [16] > 100 µM | [17] > 100 µM | [18] > 100 µM

CC(C)=CCN1c2ccc(Cl)cc2NC(=O)CC1C (stereo unspecified)
inactive: [1] 41.9 µM | [20] 24.9 µM | [2] 59.4 µM | [3] 17.5 µM | [4] 17.5 µM | [6] 15.8 µM | [7] 31.6 µM | [8] 21.2 µM | [9] 18.3 µM | [10] 18.2 µM | [11] 18.4 µM | [12] 19.6 µM | [13] 13 µM | [14] 20.3 µM | [15] 28.3 µM | [16] 22.1 µM | [17] 35.2 µM | [18] 20.5 µM

CN(C)/N=C(/c1nc2ccc(Cl)cc2nc1O)C(O)c1ccc(C(O)/C(=N\N(C)C)c2nc3ccc(Cl)cc3nc2O)cc1 (stereo unspecified)
inactive: [1] > 100 µM | [20] > 100 µM | [2] > 100 µM | [3] > 100 µM | [4] > 100 µM | [5] > 100 µM | [6] > 100 µM | [7] > 100 µM | [8] > 100 µM | [9] > 100 µM | [10] > 100 µM | [11] > 100 µM | [12] > 100 µM | [13] 27.9 µM | [14] > 100 µM | [15] > 100 µM | [16] 14.1 µM | [17] > 100 µM | [18] > 100 µM

CCOC(=O)c1csc(NC(=O)CCN2CCCCC2)n1
inactive: [1] > 100 µM | [20] > 100 µM | [2] > 100 µM | [3] > 100 µM | [4] > 100 µM | [5] > 100 µM | [6] > 100 µM | [7] > 100 µM | [8] > 100 µM | [9] > 100 µM | [13] > 100 µM | [14] > 100 µM | [16] > 100 µM | [17] > 100 µM | [18] > 100 µM

CSC(=N)N1N=C2/C(=C/c3ccccc3)CCC[C@H]2[C@H]1c1ccccc1
inactive: [1] 3.13 µM | [20] 2.86 µM | [2] 3.98 µM | [3] 2.07 µM | [4] 5.68 µM | [5] 10.9 µM | [7] 3.4 µM | [8] 2.37 µM | [9] 10.6 µM | [10] 5.47 µM | [11] 2.83 µM | [12] 3.92 µM | [13] 1.72 µM | [14] 1.93 µM | [15] 9.84 µM | [16] 2.18 µM | [17] 12.7 µM | [18] 6.58 µM

O=C(O)C1(Cc2ccc3c(c2)CCC3)Cc2cc3c(cc2C1)CCC3
inactive: [1] > 100 µM | [2] > 100 µM | [3] > 100 µM | [5] > 100 µM | [7] > 100 µM | [19] > 100 µM | [9] > 100 µM | [10] > 100 µM | [11] > 100 µM | [13] > 100 µM | [14] > 100 µM | [15] > 100 µM | [16] > 100 µM | [17] > 100 µM | [18] > 100 µM

COc1cc(C)cc(OC)c1/C=C/C(=O)O
inactive: [1] > 100 µM | [20] > 100 µM | [2] > 100 µM | [3] > 100 µM | [4] > 100 µM | [5] > 100 µM | [6] > 100 µM | [7] > 100 µM | [8] > 100 µM | [9] 21.5 µM | [10] > 100 µM | [11] > 100 µM | [12] > 100 µM | [13] > 100 µM | [14] > 100 µM | [15] > 100 µM | [16] > 100 µM | [17] > 100 µM

COc1cc(CO)c(CC(=O)NCCCc2ccccc2)cc1OC
inactive: [1] > 100 µM | [2] > 100 µM | [3] > 100 µM | [4] > 100 µM | [5] > 100 µM | [6] > 100 µM | [7] > 100 µM | [19] > 100 µM | [8] > 100 µM | [9] > 100 µM | [10] > 100 µM | [11] > 100 µM | [12] > 100 µM | [13] 38 µM | [14] > 100 µM | [15] 54.6 µM | [17] > 100 µM

BrP(NC1CCCCCC1)(c1ccccc1)(c1ccccc1)c1ccccc1
active: [15] 0.873 µM | [16] 1.03 µM
inactive: [1] 2.4 µM | [20] 2.2 µM | [2] 18 µM | [3] 2.1 µM | [4] 1.33 µM | [5] 3.03 µM | [6] 3.98 µM | [7] 4.25 µM | [8] 1.86 µM | [9] 3.38 µM | [10] 7.53 µM | [11] 4.74 µM | [12] 5.06 µM | [13] 1.9 µM | [14] 2.93 µM | [17] 6.58 µM | [18] 14.1 µM

C=C1CCC2[C@@H](CCC3[C@]2(C)CCC[C@]3(C)C(=O)OC)C1CCO (stereo partly specified)
inactive: [1] 13.9 µM | [2] 14.9 µM | [3] 4.37 µM | [4] 6.49 µM | [5] 11.2 µM | [6] 12.1 µM | [7] 14.7 µM | [19] 7.46 µM | [8] 5.98 µM | [9] 12.6 µM | [10] 18.3 µM | [11] 5.98 µM | [12] 11.9 µM | [13] 4.02 µM | [14] 14.9 µM | [15] 12.5 µM | [16] 3.12 µM | [17] 18.6 µM | [18] 13.4 µM

Oc1cc(O)c2c(c1)O[C@H](c1ccc(O)c(O)c1)[C@@H](O)C2 [CIANIDANOL]
inactive: [1] > 100 µM | [2] > 100 µM | [3] > 100 µM | [4] > 100 µM | [6] > 100 µM | [7] > 100 µM | [19] > 100 µM | [8] > 100 µM | [9] > 100 µM | [10] > 100 µM | [11] > 100 µM | [12] > 100 µM | [13] > 100 µM | [14] > 100 µM | [15] > 100 µM | [16] > 100 µM | [17] > 100 µM | [18] > 100 µM
